According to patent publication US8426424B2, “Certain substituted amides, method of making, and method of use thereof” (CGI Pharmaceuticals, Inc., priority 2008, dated 2013):

melting point: 178 to 179 °C
Compound: Cc1c(NC(=O)c2cc3c(s2)C2CCC3C2)cccc1-c1cn(C)c(=O)c(Nc2ccc(C3C(=O)N(C)CCN3C)cc2)n1 (stereo not shown) [1q, N-(3-(6-(4-(1,4-Dimethyl-3-oxopiperazin-2-yl)phenylamino)-4-methyl-5-oxo-4,5-dihydropyrazin-2-yl)-2-methylphenyl)-4,5,6,7-tetrahydro-4,7-methanobenzo[b]thiophene-2-carboxamide]
